These results are taken from patent US7390806B2, “Antibiotics containing borinic acid complexes and methods of use” (Anacor Pharmaceuticals, Inc., priority 2002, dated 2008).

Structures are written as SMILES.

What all share (conditions): Table 1
In experiment [1] the test system is E. faecium CT-26. Description: MIC determination, E. faecium CT-26. Format: cell-based, Enterococcus faecium.
Experiment [2] has as its system S. pneumoniae ATCC 6301. Description: MIC determination, S. pneumoniae ATCC 6301. Format: cell-based, Streptococcus pneumoniae.
Experiment [3] relates to M. catarrhalis ATCC 25238. Description: MIC determination, M. catarrhalis ATCC 25238. Format: cell-based.
Experiment [4] deals with E. faecalis ATCC 29212. Description: MIC determination, E. faecalis ATCC 29212. Format: cell-based, Enterococcus faecalis.
In experiment [5] the test system is S. aureus ATCC 29213. The experiment in a line: MIC determination, S. aureus ATCC 29213. Format: cell-based, Staphylococcus aureus.
For experiment [6], the system named is S. epidermidis ATCC 12228. Description: MIC determination, S. epidermidis ATCC 12228. Format: cell-based, Staphylococcus epidermidis.

Turning to `Oc1ccc(F)c2cccnc12` [Compound 34], the “MIC E. faecium CT-26” value in experiment [1] is 4 micrograms per ml. For the same compound, the “MIC S. pneumoniae ATCC 6301” value in experiment [2] is recorded as 2 micrograms per ml. In addition, the “MIC M. catarrhalis ATCC 25238” value in experiment [3] was found to be 1 micrograms per ml. For the same compound, the “MIC E. faecalis ATCC 29212” value in experiment [4] was determined as 8 micrograms per ml. Also, in experiment [5], the “MIC S. aureus ATCC 29213” value is on record as 1 micrograms per ml. For the same compound, the “MIC S. epidermidis ATCC 12228” value in experiment [6] is on record as 2 micrograms per ml.

With `Oc1ccc(F)c2cccnc12` [Compound 35], the “MIC E. faecium CT-26” value in experiment [1] came to 4 micrograms per ml. For the same compound, the “MIC S. pneumoniae ATCC 6301” value in experiment [2] is on record as 2 micrograms per ml. Besides, in experiment [3], the “MIC M. catarrhalis ATCC 25238” value is 2 micrograms per ml. In experiment [4], the “MIC E. faecalis ATCC 29212” value turned out to be 8 micrograms per ml. Further, the “MIC S. aureus ATCC 29213” value in experiment [5] is on record as 1 micrograms per ml. The “MIC S. epidermidis ATCC 12228” value in experiment [6] is listed as 2 micrograms per ml.

For `Clc1cccc(B(Oc2cccc3cccnc23)c2cccs2)c1` [Compound 36, (3-Chlorophenyl)(2-thienyl)borinic acid 8-hydroxyquinoline ester], in experiment [1], the “MIC E. faecium CT-26” value is 2 micrograms per ml. In addition, the “MIC S. pneumoniae ATCC 6301” value in experiment [2] turned out to be 2 micrograms per ml. The “MIC M. catarrhalis ATCC 25238” value in experiment [3] was 4 micrograms per ml. For the same compound, in experiment [4], the “MIC E. faecalis ATCC 29212” value turned out to be 8 micrograms per ml. In addition, in experiment [5], the “MIC S. aureus ATCC 29213” value is recorded as 1 micrograms per ml. The “MIC S. epidermidis ATCC 12228” value in experiment [6] is recorded as 1 micrograms per ml.

On to `Oc1cccc2cccnc12` [Compound 37, 8-hydroxyquinoline], for which the “MIC E. faecium CT-26” value in experiment [1] came out at 2 micrograms per ml. Further, in experiment [2], the “MIC S. pneumoniae ATCC 6301” value is 1 micrograms per ml. Also, the “MIC M. catarrhalis ATCC 25238” value in experiment [3] was determined as 1 micrograms per ml. Also, the “MIC E. faecalis ATCC 29212” value in experiment [4] is listed as 8 micrograms per ml. For the same compound, the “MIC S. aureus ATCC 29213” value in experiment [5] was found to be 1 micrograms per ml. For the same compound, the “MIC S. epidermidis ATCC 12228” value in experiment [6] stood at 1 micrograms per ml.

Turning to `Oc1cccc2cccnc12` [Compound 38, 8-hydroxyquinoline], the “MIC E. faecium CT-26” value in experiment [1] is 2 micrograms per ml. The “MIC S. pneumoniae ATCC 6301” value in experiment [2] was found to be 2 micrograms per ml. In addition, the “MIC M. catarrhalis ATCC 25238” value in experiment [3] is reported as 1 micrograms per ml. Besides, in experiment [4], the “MIC E. faecalis ATCC 29212” value amounted to 16 micrograms per ml. In experiment [5], the “MIC S. aureus ATCC 29213” value is reported as 1 micrograms per ml. In addition, the “MIC S. epidermidis ATCC 12228” value in experiment [6] was 1 micrograms per ml.

Turning to `Oc1cccc2cccnc12` [Compound 39, 8-hydroxyquinoline], the “MIC E. faecium CT-26” value in experiment [1] is reported as 2 micrograms per ml. Further, the “MIC S. pneumoniae ATCC 6301” value in experiment [2] is on record as 1 micrograms per ml. Also, in experiment [3], the “MIC M. catarrhalis ATCC 25238” value is 2 micrograms per ml. Moreover, the “MIC E. faecalis ATCC 29212” value in experiment [4] came out at 8 micrograms per ml. For the same compound, the “MIC S. aureus ATCC 29213” value in experiment [5] is recorded as 1 micrograms per ml. In experiment [6], the “MIC S. epidermidis ATCC 12228” value stood at 1 micrograms per ml.

With `C=CB(Oc1cccc2cccnc12)c1cccc(C#N)c1` [Compound 40, (3-Cyanophenyl)vinylborinic acid 8-hydroxyquinoline ester], in experiment [1], the “MIC E. faecium CT-26” value was determined as 2 micrograms per ml. Moreover, the “MIC S. pneumoniae ATCC 6301” value in experiment [2] was 1 micrograms per ml. For the same compound, the “MIC M. catarrhalis ATCC 25238” value in experiment [3] is on record as 2 micrograms per ml. Besides, the “MIC E. faecalis ATCC 29212” value in experiment [4] came out at 8 micrograms per ml. Moreover, the “MIC S. aureus ATCC 29213” value in experiment [5] was found to be 1 micrograms per ml. The “MIC S. epidermidis ATCC 12228” value in experiment [6] was 1 micrograms per ml.

For the compound `Oc1cccc2cccnc12` [Compound 41, 8-hydroxyquinoline], the “MIC E. faecium CT-26” value in experiment [1] was 2 micrograms per ml. In addition, the “MIC S. pneumoniae ATCC 6301” value in experiment [2] came out at 1 micrograms per ml. Also, the “MIC M. catarrhalis ATCC 25238” value in experiment [3] is 1 micrograms per ml. The “MIC E. faecalis ATCC 29212” value in experiment [4] came to 4 micrograms per ml. For the same compound, the “MIC S. aureus ATCC 29213” value in experiment [5] is recorded as 1 micrograms per ml. Further, the “MIC S. epidermidis ATCC 12228” value in experiment [6] was found to be 1 micrograms per ml.

In the case of `Oc1cccc2cccnc12` [Compound 42, 8-hydroxyquinoline], the “MIC E. faecium CT-26” value in experiment [1] amounted to 2 micrograms per ml. For the same compound, the “MIC S. pneumoniae ATCC 6301” value in experiment [2] turned out to be 1 micrograms per ml. Besides, in experiment [3], the “MIC M. catarrhalis ATCC 25238” value came to 1 micrograms per ml. The “MIC E. faecalis ATCC 29212” value in experiment [4] is 8 micrograms per ml. For the same compound, the “MIC S. aureus ATCC 29213” value in experiment [5] is reported as 1 micrograms per ml. Also, in experiment [6], the “MIC S. epidermidis ATCC 12228” value was 1 micrograms per ml.

Regarding `C#CB(Oc1cccc2cccnc12)c1ccccc1Cl` [Compound 43, (2-Chlorophenyl)ethynylborinic acid 8-Hydroxyquinoline ester], the “MIC E. faecium CT-26” value in experiment [1] was 2 micrograms per ml. Besides, the “MIC S. pneumoniae ATCC 6301” value in experiment [2] was found to be 1 micrograms per ml. Further, the “MIC M. catarrhalis ATCC 25238” value in experiment [3] is given as 1 micrograms per ml. Further, the “MIC E. faecalis ATCC 29212” value in experiment [4] is reported as 8 micrograms per ml. In experiment [5], the “MIC S. aureus ATCC 29213” value was 1 micrograms per ml. Besides, in experiment [6], the “MIC S. epidermidis ATCC 12228” value is listed as 1 micrograms per ml.

Regarding `Oc1cccc2cccnc12` [Compound 45, 8-hydroxyquinoline], the “MIC E. faecium CT-26” value in experiment [1] worked out at 1 micrograms per ml. Besides, the “MIC S. pneumoniae ATCC 6301” value in experiment [2] stood at 1 micrograms per ml. In addition, in experiment [3], the “MIC M. catarrhalis ATCC 25238” value worked out at 1 micrograms per ml. Also, in experiment [4], the “MIC E. faecalis ATCC 29212” value is recorded as 8 micrograms per ml. In addition, in experiment [5], the “MIC S. aureus ATCC 29213” value is listed as 1 micrograms per ml. The “MIC S. epidermidis ATCC 12228” value in experiment [6] is recorded as 1 micrograms per ml.

As to `Oc1cccc2cccnc12` [Compound 46, 8-hydroxyquinoline], the “MIC E. faecium CT-26” value in experiment [1] stood at 1 micrograms per ml. The “MIC S. pneumoniae ATCC 6301” value in experiment [2] worked out at 1 micrograms per ml. Moreover, the “MIC M. catarrhalis ATCC 25238” value in experiment [3] came to 1 micrograms per ml. In addition, in experiment [4], the “MIC E. faecalis ATCC 29212” value is recorded as 4 micrograms per ml. Moreover, the “MIC S. aureus ATCC 29213” value in experiment [5] is given as 1 micrograms per ml. Besides, the “MIC S. epidermidis ATCC 12228” value in experiment [6] is given as 1 micrograms per ml.

Take `Oc1cccc2cccnc12` [Compound 47, 8-hydroxyquinoline]: the “MIC E. faecium CT-26” value in experiment [1] was 2 micrograms per ml. Moreover, the “MIC S. pneumoniae ATCC 6301” value in experiment [2] stood at 1 micrograms per ml. Moreover, in experiment [3], the “MIC M. catarrhalis ATCC 25238” value came out at 1 micrograms per ml. Further, the “MIC E. faecalis ATCC 29212” value in experiment [4] worked out at 8 micrograms per ml. Further, the “MIC S. aureus ATCC 29213” value in experiment [5] worked out at 1 micrograms per ml. Also, the “MIC S. epidermidis ATCC 12228” value in experiment [6] is 1 micrograms per ml.

On to `Oc1cccc2cccnc12` [Compound 48, 8-hydroxyquinoline], for which the “MIC E. faecium CT-26” value in experiment [1] is on record as 2 micrograms per ml. In experiment [2], the “MIC S. pneumoniae ATCC 6301” value is reported as 1 micrograms per ml. The “MIC M. catarrhalis ATCC 25238” value in experiment [3] turned out to be 2 micrograms per ml. In experiment [4], the “MIC E. faecalis ATCC 29212” value is recorded as 8 micrograms per ml. Moreover, the “MIC S. aureus ATCC 29213” value in experiment [5] worked out at 1 micrograms per ml. Moreover, the “MIC S. epidermidis ATCC 12228” value in experiment [6] turned out to be 1 micrograms per ml.

`Oc1ccc(Cl)c2cccnc12` [Compound 49]: the “MIC E. faecium CT-26” value in experiment [1] is given as 2 micrograms per ml. For the same compound, the “MIC S. pneumoniae ATCC 6301” value in experiment [2] is 1 micrograms per ml. The “MIC M. catarrhalis ATCC 25238” value in experiment [3] is listed as 0.25 micrograms per ml. For the same compound, the “MIC E. faecalis ATCC 29212” value in experiment [4] was 16 micrograms per ml. The “MIC S. aureus ATCC 29213” value in experiment [5] worked out at 2 micrograms per ml. Moreover, in experiment [6], the “MIC S. epidermidis ATCC 12228” value came out at 1 micrograms per ml.

Consider `Oc1cccc2cccnc12` [Compound 54, 8-hydroxyquinoline], for which the “MIC E. faecium CT-26” value in experiment [1] is on record as 4 micrograms per ml. Also, the “MIC S. pneumoniae ATCC 6301” value in experiment [2] was 2 micrograms per ml. For the same compound, in experiment [3], the “MIC M. catarrhalis ATCC 25238” value is recorded as 1 micrograms per ml. For the same compound, the “MIC E. faecalis ATCC 29212” value in experiment [4] was 8 micrograms per ml. The “MIC S. aureus ATCC 29213” value in experiment [5] is reported as 2 micrograms per ml. Further, in experiment [6], the “MIC S. epidermidis ATCC 12228” value is given as 1 micrograms per ml.
